From PubChem BioAssay AID1963982 (Molecular Pharmacology Branch, DTP, NCI, 2024)
“And” between values parts separate entries of the source, which are not always exact repeats. Equal values may be shown once.

System: 313798-341-R-J2-PDC spheroids, viability
Assay: Anticancer human tumor 313798-341-R-J2-PDC patient-derived cervical squamous cell carcinoma cell line growth inhibition [PI3K]
Conditions: spheroids with HUVEC and MSC; for viability, T/C: stronger effect = lower value
Text: Combinatorial screen of targeted agents with the PI3K inhibitors inavolisib, alpelisib, duvelisib, and copanlisib in multi-cell type tumor spheroids
A high-throughput screen of multi-cell type tumor spheroids was designed to identify active combinations of targeted small molecules and PI3K pathway inhibitors. Complex spheroids include a stromal component modeled by human endothelial cells (HUVEC) and fibroblasts modeled by human mesenchymal stem cells (MSCs). The concentration ranges selected for each drug and investigational agent were based upon clinically achievable concentrations if the clinical Cmax of the agent was known.
Compounds. The drugs and investigational agents: inavolisib (NSC800729), alpelisib (NSC765974), duvelisib (NSC772469), copanlisib (NSC816437), ipatasertib (NSC767898), afuresertib (NSC778305), talazoparib (NSC767125), sapanisertib (NSC764658), selumetinib (NSC741078), tovorafenib (DAY101, NSC766906), vemurafenib (NSC761431), ravoxertinib (NSC781343), sotorasib (NSC818433), MRTX1133 (NSC 836407), abemaciclib (NSC 768073), palbociclib (NSC758247), venetoclax (NSC 766270), SY5609 (NSC837396), enzalutamide (NSC755605), and darolutamide (NSC825331), were obtained from the National Cancer Institute (NCI) Developmental Therapeutics Program Chemical Repository. The FDA-approved anticancer drug set is available from the NCI Developmental Therapeutics Program. […] The stock solutions were prepared in dimethyl sulfoxide (DMSO, Sigma-Aldrich, St. Louis, MO, cat. D2650) at 800-fold the tested concentration and stored at -70 degrees C prior to their use. All drugs and investigational agents were tested over a range starting from a high concentration at or near the clinical Cmax and decreasing in half-log increments. If the clinical Cmax for an agent had not been determined, the highest concentration tested was 10 microM.
Cell Culture. All cells were maintained in an incubator at 37 degrees C and 5% CO2 with 95% humidity. The PDC lines were cultured according to standard operating procedures established by the NCI PDMR (https://pdmr.cancer.gov/sops/default.htm). All PDCs were thawed and cultured in Matrigel-coated flasks prepared with a working solution of 1X Ham's F-12 nutrient mix, without supplementation (Invitrogen, Waltham, MA, cat. 11765054), 100 U/mL penicillin-streptomycin (Invitrogen, cat. 15140122), and 2.5% Matrigel (Corning Inc., Corning, NY, cat. 354248) for the first three passages. The 354836-022-R-J1-PDC, 475296-252-R-J1-PDC, and 997726-040-R-J2-PDC lines were cultured in 6A media, which includes advanced DMEM/F-12 (Thermo Fisher Scientific, cat. 12634028), 10 mM HEPES (Thermo Fisher Scientific, cat. 15630080), 1X GlutaMAX supplement (Thermo Fisher Scientific, cat. 35050061), 0.1 mg/mL primocin (InvivoGen, San Diego, CA, cat. ant-pm-2), 10% defined fetal bovine serum, heat inactivated (HyClone Laboratories Inc., Logan, UT, cat. SH30070.03HI), 50% L-WRN conditioned media (ATCC, cat. CRL-3276), 1.25 mM N-Acetyl-L-cysteine (Sigma-Aldrich, cat. A9165), 10 mM nicotinamide (Sigma-Aldrich, cat. N0636), 1X B-27 supplement (Thermo Fisher Scientific, cat. 17504044), 1X N-2 supplement (Thermo Fisher Scientific, cat. 17502048), and 10 microM Y-27632 dihydrochloride (Tocris Bioscience, Bristol, United Kingdom, cat. 1254). The 624824-186-R-J2-PDC line was cultured in 6C/Colon 1B media, which includes all 6A media components plus 50 ng/mL human EGF recombinant protein (Thermo Fisher Scientific, cat. PHG0311). […]

[1] = curve of first compound, second compound 0.0316 µM
[2] = curve of first compound, second compound 0.1 µM
[3] = curve of first compound, second compound 0.316 µM
[4] = curve of first compound, second compound 1 µM
[5] = second compound 0.0316 µM, first compound 0.0316 µM
[6] = second compound 0.0316 µM, first compound 0.1 µM
[7] = second compound 0.0316 µM, first compound 0.316 µM
[8] = second compound 0.0316 µM, first compound 1 µM
[9] = second compound 0.0316 µM, first compound 3.16 µM
[10] = second compound 0.0316 µM, first compound 10 µM
[11] = second compound 0.1 µM, first compound 0.0316 µM
[12] = second compound 0.1 µM, first compound 0.1 µM
[13] = second compound 0.1 µM, first compound 0.316 µM
[14] = second compound 0.1 µM, first compound 1 µM
[15] = second compound 0.1 µM, first compound 3.16 µM
[16] = second compound 0.1 µM, first compound 10 µM
[17] = second compound 0.316 µM, first compound 0.0316 µM
[18] = second compound 0.316 µM, first compound 0.1 µM
[19] = second compound 0.316 µM, first compound 0.316 µM
[20] = second compound 0.316 µM, first compound 1 µM
[21] = second compound 0.316 µM, first compound 3.16 µM
[22] = second compound 0.316 µM, first compound 10 µM
[23] = second compound 1 µM, first compound 0.0316 µM
[24] = second compound 1 µM, first compound 0.1 µM
[25] = second compound 1 µM, first compound 0.316 µM
[26] = second compound 1 µM, first compound 1 µM
[27] = second compound 1 µM, first compound 3.16 µM
[28] = second compound 1 µM, first compound 10 µM
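Further: spheroids exposed to compounds for seven days.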
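Wherever viability, T/C is given: 100% = DMSO vehicle control viability.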

CC(C)NCC(C(=O)N1CCN(c2ncnc3c2C(C)CC3O)CC1)c1ccc(Cl)cc1 (centres undefined) + COc1c(OCCCN2CCOCC2)ccc2c3n(c(=NC(=O)c4cnc(N)nc4)nc12)CCN3
IC50 (curve of first compound, second compound 0.00316 µM): 2420 nM
IC50 (curve of first compound, second compound 0.01 µM): 1210 nM
IC50 [1]: 1620 nM
IC50 [2]: < 31.6 nM
IC50 [3]: < 31.6 nM
IC50 [4]: < 31.6 nM
viability, T/C (second compound 0.00316 µM, first compound 0.0316 µM): 97.3%
viability, T/C (second compound 0.00316 µM, first compound 0.1 µM): 99%
viability, T/C (second compound 0.00316 µM, first compound 0.316 µM): 83%
viability, T/C (second compound 0.00316 µM, first compound 1 µM): 64.3%
viability, T/C (second compound 0.00316 µM, first compound 3.16 µM): 46.9%
viability, T/C (second compound 0.00316 µM, first compound 10 µM): 33%
viability, T/C (second compound 0.01 µM, first compound 0.0316 µM): 85.9%
viability, T/C (second compound 0.01 µM, first compound 0.1 µM): 97.1%
viability, T/C (second compound 0.01 µM, first compound 0.316 µM): 81.1%
viability, T/C (second compound 0.01 µM, first compound 1 µM): 52%
viability, T/C (second compound 0.01 µM, first compound 3.16 µM): 39.2%
viability, T/C (second compound 0.01 µM, first compound 10 µM): 29.8%
viability, T/C [5]: 74.8%
viability, T/C [6]: 73.6%
viability, T/C [7]: 59.9%
viability, T/C [8]: 63.2%
viability, T/C [9]: 33%
viability, T/C [10]: 26.1%
viability, T/C [11]: 42.6%
viability, T/C [12]: 38.6%
viability, T/C [13]: 36.9%
viability, T/C [14]: 34%
viability, T/C [15]: 23.9%
viability, T/C [16]: 18.6%
viability, T/C [17]: 15.2%
viability, T/C [18]: 18.4%
viability, T/C [19]: 15.9%
viability, T/C [20]: 17.6%
viability, T/C [21]: 16.3%
viability, T/C [22]: 8.87%
viability, T/C [23]: 10.8%
viability, T/C [24]: 11.6%
viability, T/C [25]: 9.87%
viability, T/C [26]: 13.1%
viability, T/C [27]: 10.6%
viability, T/C [28]: 5.77%

Cn1cnc2c(F)c(Nc3ccc(Br)cc3Cl)c(C(=O)NOCCO)cc21
viability, T/C (compound 0.00949 µM): 97.9% [middle of 4 runs]
viability, T/C (compound 0.03 µM): 92% [middle of 4 runs]
viability, T/C (compound 0.0949 µM): 89.5% [middle of 4 runs]
viability, T/C (compound 0.3 µM): 93.5% [middle of 4 runs]
IC50 (curve of compound): 1380 nM and > 3000 nM

CNC(=O)c1ccc(N2C(=S)N(c3ccc(C#N)c(C(F)(F)F)c3)C(=O)C2(C)C)cc1F + Cc1nc(NC(=O)N2CCCC2C(N)=O)sc1-c1ccnc(C(C)(C)C(F)(F)F)c1
IC50 [1]: > 10000 nM
IC50 [2]: > 10000 nM
IC50 [3]: > 10000 nM
IC50 [4]: > 10000 nM
IC50 (curve of first compound, second compound 3.16 µM): > 10000 nM
IC50 (curve of first compound, second compound 10 µM): < 31.6 nM
viability, T/C [5]: 97.5%
viability, T/C [6]: 104%
viability, T/C [7]: 92.3%
viability, T/C [8]: 107%
viability, T/C [9]: 119%
viability, T/C [10]: 88.4%
viability, T/C [11]: 116%
viability, T/C [12]: 101%
viability, T/C [13]: 99.5%
viability, T/C [14]: 105%
viability, T/C [15]: 111%
viability, T/C [16]: 114%
viability, T/C [17]: 104%
viability, T/C [18]: 104%
viability, T/C [19]: 107%
viability, T/C [20]: 102%
viability, T/C [21]: 117%
viability, T/C [22]: 111%
viability, T/C [23]: 94.3%
viability, T/C [24]: 89.4%
viability, T/C [25]: 96.2%
viability, T/C [26]: 96%
viability, T/C [27]: 90.3%
viability, T/C [28]: 90.4%
viability, T/C (second compound 3.16 µM, first compound 0.0316 µM): 67.4%
viability, T/C (second compound 3.16 µM, first compound 0.1 µM): 64.7%
viability, T/C (second compound 3.16 µM, first compound 0.316 µM): 65.9%
viability, T/C (second compound 3.16 µM, first compound 1 µM): 64.9%
viability, T/C (second compound 3.16 µM, first compound 3.16 µM): 61.5%
viability, T/C (second compound 3.16 µM, first compound 10 µM): 54.5%
viability, T/C (second compound 10 µM, first compound 0.0316 µM): 36%
viability, T/C (second compound 10 µM, first compound 0.1 µM): 39.3%
viability, T/C (second compound 10 µM, first compound 0.316 µM): 38.5%
viability, T/C (second compound 10 µM, first compound 1 µM): 36.8%
viability, T/C (second compound 10 µM, first compound 3.16 µM): 35.5%
viability, T/C (second compound 10 µM, first compound 10 µM): 33%
